This passage reports melting point results from US7196094B2, “Farnesyl transferase inhibiting 6-heterocyclylmethyl quinoline and quinazoline derivatives” (Janssen Pharmaceutica, N.V., priority 2000, dated 2007).

`Cn1cncc1C(c1ccc2c(c1)c(-c1cccc(Cl)c1)nc1nnnn12)n1ccnc1-c1ccccc1` (stereo not drawn) [Compound 10, 5-(3-chlorophenyl)-7-[(1-methyl-1H-imidazol-5-yl)(2-phenyl-1H-imidazol-1-yl)methyl]-tetrazolo[1,5-a]quinazoline]: the melting point came to 150 °C.

With `Cn1cncc1C(O)(c1ccoc1)c1ccc2c(c1)c(-c1cccc(Cl)c1)cc1nnnn12` (stereo not drawn) [Compound 3, 5-(3-chlorophenyl)-α-(3-furanyl)-α-(1-methyl-1H-imidazol-5-yl)-tetrazolo[1,5-a]quinoline-7-methanol], the melting point turned out to be 188 °C.

`Cn1cncc1C(O)(c1ccc2ncccc2c1)c1ccc2c(c1)c(-c1cccc(Cl)c1)nc(=O)n2C` (stereo not drawn) [Compound 7, 4-(3-chlorophenyl)-6-[hydroxy(1-methyl-1H-imidazol-5-yl)-6-quinolinylmethyl]-1-methyl-2(1H)-quinazolinone] registered a melting point of 192 °C.

One may read the melting point as the temperature of the solid-liquid transition.
